Data on one molecule can be found in patent US20150057316A1, “NOVEL SULFONATE-BASED TRIMEBUTINE SALTS” (GICARE PHARMA INC., priority 2012, published 2015).

One data set deals with male Balb/C mice. Put plainly: preliminary toxicological evaluation following i.p. administration in mice. The format is in vivo. Conditions: 50 mg/kg i.p. On the procedure: A preliminary toxicological evaluation of the compound was done in 6-8 week old male Balb/C mice. […] Following administration of the test article, animals were observed hr for the first 8 hr post-dosing for clinical signs and twice daily thereafter until termination on Day 7. Body weights were determined on Days 1, 2, 3 and 7. Three mice were sacrificed by exsanguination at 24 hr post dosing or on Day 7, and a gross necropsy was performed in all animals. Particular attention was paid to the abdominal, thoracic and cranial cavities for reporting of any unusual observations.

Another data set relates to Beagle dogs. Nature of the data set: i.v./p.o. cross over study in dogs, toxicological assessment. It is filed as in vivo. To be noted: 2 mg/kg i.v. or 10 mg/kg p.o. On the procedure:
Trimebutine 3-thiocarbamoyl-benzenesulfonate was administered as a cross over design once, each dosing separated by at least a 7-day washout period. During this study, assessments included mortality checks, clinical observations, and body weights. Feces and urine samples were collected up to 48 hr post-administration. Blood samples were also collected for pharmacokinetic evaluations on Days 1 and 8 at 10 time points. Pharmacokinetic data are presented in the two following Figures.

On to `CCC(COC(=O)c1cc(OC)c(OC)c(OC)c1)(c1ccccc1)N(C)C.NC(=S)c1cccc(S(=O)(=O)O)c1` (centres unmarked) [Example 20], for which the tolerability result in the data set with male Balb/C mice is “well-tolerated”. Further, the “macroscopic finding at gross necropsy” value with male Balb/C mice (24 hr or Day 7) is on record as “no significant macroscopic finding”. In addition, in the data set on male Balb/C mice (7 days), the clinical signs result is listed as “no clinical signs were noted” and the mortality result is reported as “no mortality”. The body weights entry in the data set on male Balb/C mice (Days 1, 2, 3 and 7) is recorded as “remained stable”. In addition, in the data set on Beagle dogs, the bodyweight result is reported as “no change in bodyweight”, the death entry is listed as “no death reported” and the toxicity result was “no indication of any toxicity”.
